Results as given in US20240407363A1 (priority 2021, published 2024).
In brackets after ≈: the same amount, converted by molar mass.

Assays:
Xanthomonas perforans = test: Field trials on hexanoic acid, bacterial spot of tomato (cv. Red bounty); assay type: in vivo; details: for AUDPC / BS last rating of bacterial spot severity / YIELD: cv. Red bounty, ManKocide 2.1 mg/ml foliar spray, hexanoic acid 0.5 mg/ml drench (50 ml/plant)
Protocol: Table 3 notes: Data from 2 repeated field experiments: BS1/BS2=bacterial disease severity in Exp. 1/Exp. 2; AUDPC1/AUDPC2=area under the disease progress curve in Exp. 1/Exp. 2; YIELD 1/YIELD 2=fruit yield (Kg/plant) in Exp/1/Exp.2; KOCIDER=Kocide® 3000 (Cu bactericide) at 1.75 lb/acre (=2.1 mg/mL) by sprays; MANKO=Mankocide® (Cu+mancozeb) at 1.75 lb/acre by foliar spray; HEXANO=hexanoic acid at 0.5 mg/mL (=500 mg/L) by root drench weekly for a total of 8 weeks.
It is noted regarding the table above that: (1) data in this table were from 2 repeated field experiments, whereas those in FIG. 9 were from a greenhouse preliminary test; and (2) in the field experiments, Hx at 500 mg/L was weekly applied as soil drench for a total of 8 weeks. In the greenhouse test (FIG. 9), Hx at 512 mg/L was applied only one time as soil drench at 1, 3, or 7 days prior to the bacterial inoculation, respectively.
Tomato seedlings were transplanted in fall for the first trial (trial 1) and spring for the second trial (trial 2). Treatments were started about two weeks after transplanting following weekly applications for a total of eight weeks. Tomato plants were inoculated with the pathogen Xanthomonas perforans (1-5×10^6 cfu/ml) the following day in the afternoon after the third treatment. Disease severity was rated weekly when bacterial spot symptoms were observed, and area under the disease progress curve (AUDPC) was calculated. Tomato fruit were harvested two to three times for each trial and graded according to the USDA standard. Total fruit yield in each treatment and the untreated control (CK) was subjected to statistical analysis using SAS (version 9.2, SAS Institute Inc., Cary, NC, USA). Disease severity of last rating and AUDPC from each trial were analyzed and presented.
Hexanoic acid at 0.5 mg/ml was drenched (50 ml/plant) to the base of each plant. This chemical was evaluated in two independent trials. Tomato cultivar was ‘Red bounty’.

[1] = test system: X. perforans strain GEV-485; test: In vitro antibacterial activity at different time points (viable colony counts); assay type: cell-based
Protocol: (§1) X. perforans strain GEV-485, a copper-resistant strain, was used in this study to evaluate the antibacterial activity of Hx. Working cultures of GEV-485 were retrieved from −80° C. storage vials containing bacterial suspensions in 30% glycerol (v/v). Bacterial cells were taken from the storage, streaked on nutrient agar (NA; Difco™ Sparks, MD) plates and incubated for 48 h at 28° C. and single colonies were picked and streaked on NA plates to ensure bacterial purity for further cultures. NA amended with copper (II) sulfate pentahydrate (CuSO4·5H2O) (Fisher Scientific-Hampton, NH) at 20 ppm, was used as copper tolerance selective agent. To prepare the bacterial inoculum, a single bacterial colony was streaked on NA and incubated for 24 h at 28° C. From those plates, loops of bacterial cells were collected and resuspended in SDW amended with 0.01 M MgSO4. The bacterial concentration was adjusted to ˜5.0×10^8 colony-forming units (CFU)/mL based on an optical density (OD) of 0.3 at 600 nm. The in vitro studies were conducted to determine the minimum inhibitory concentration (MIC), minimum bactericidal concentration (MBC), and the antibacterial activity at different time points.
For the antibacterial activity study of Hx at different time points, the bacterial suspension was prepared as described above. […] After incubation, total viable colonies for each tube were counted. […]

X. perforans GEV-485 = test: In vitro MIC and MBC determination in nutrient broth / on NA plates; assay type: cell-based; details: three trials
Protocol: as §1
To determine MIC of Hx against X. perforans GEV-485, individual 96-well plates containing 100 μL of nutrient broth (NB) with varied copper and Hx concentrations were inoculated with 100 μL of the GEV-485 suspension at the concentration of 1.0×10^8 CFU/mL. The final chemical concentrations on the wells were 16, 32, 64, 128, 256, 512, 1024, 2048, 4096 and 8192 mg/L. Three wells with 100 µL of NB and 100 μL of the bacterial suspension were the controls. Solutions in all wells were thoroughly mixed by pipetting. The plate was, then, covered with a lid and incubated under stationary conditions at 28° C. for 24 h. The value of MIC for Hx and copper was determined as the minimum concentration (mg/L), at which the bacterial growth was inhibited (the solution was clear), among all tested concentrations of each chemical. After MIC was determined, an aliquot of 20 μL of the solution from the wells that gave a clear solution was plated on NA. […] The MBC was determined as the minimum concentration, at which >99.9% of the initial bacterial populations were killed and no visible growth of the bacterium was observed on the NA plates among all tested concentrations of antimicrobial agents. The experiment was repeated two more times, with three replications for each treatment.

[2] = 0.5 mg/ml applied as root drench (50 ml/plant)
[3] = Experiment 1, Kocide 3000 1.75 lb/acre (=2.1 mg/mL) sprays, Mankocide 1.75 lb/acre foliar spray, hexanoic acid 0.5 mg/mL root drench weekly for 8 weeks
[4] = Experiment 2, Kocide 3000 1.75 lb/acre (=2.1 mg/mL) sprays, Mankocide 1.75 lb/acre foliar spray, hexanoic acid 0.5 mg/mL root drench weekly for 8 weeks

## CCCCCC(=O)O [Hexanoic acid, hexanoic acid]
Xanthomonas perforans; [2]
  effect on disease reduction compared to ManKocide at the label rate of 2.1 mg/ml: even better than ManKocide®
  marketable tomato fruit yield compared to controls: greater than the untreated control (CK) and ManKocide® in one of the two independent trials
Xanthomonas perforans; 0.5 mg/ml applied as root drench (50 ml/plant), Homestead, FL 2020-2021
  bacterial spot disease severity and AUDPC compared to the untreated control (CK): significantly (P<0.05) reduced bacterial spot disease severity at the last rating and the overall disease progress
Xanthomonas perforans; [3]
  AUDPC1 area under the disease progress curve: 95.93 c
  BS1 bacterial disease severity: 10.8 d %
  YIELD1 fruit yield: 8.83 a Kg/plant
Xanthomonas perforans; [4]
  AUDPC2 area under the disease progress curve: 390.1 c
  BS2 bacterial disease severity: 41.3 c %
  YIELD2 fruit yield: 2.76 a Kg/plant
Xanthomonas perforans; Trial 1
  AUDPC: 95.9 c
  BS last rating of bacterial spot severity: 10.8 c %
  YIELD: 8.83 a kg/plant
Xanthomonas perforans; Trial 2
  AUDPC: 390.1 c
  BS last rating of bacterial spot severity: 41.3 b %
  YIELD: 2.76 a kg/plant
[1]; at 256 mg/L or higher concentrations, after 4 hours of treatment
  colony growth after treatment: no colonies grew
[1]; higher concentrations of hexanoic acid
  bactericidal effect over time: bactericidal effects within an hour
X. perforans GEV-485; 28° C. for 24 h, copper-resistant strain, read-out: MIC
  MIC: 512 µg/mL (≈ 4.41 mM)
X. perforans GEV-485; >99.9% of initial bacterial populations killed, no visible growth on NA, read-out: MBC
  MBC: 1020 µg/mL (≈ 8.82 mM)
